The numbers were not newly measured in patent publication US8691302B2, “Peptide-containing seasoning” (Kikkoman Corporation, priority 2008, dated 2014), which cites them from elsewhere.

Data set [1] deals with angiotensin converting enzyme (Homo sapiens, UniProt P12821). The note with it: reported in Non-patent Reference 1.
The conditions of data set [2]: reported in Non-patent Reference 1.

Sequence of angiotensin converting enzyme (P12821 30-1306, species assumed): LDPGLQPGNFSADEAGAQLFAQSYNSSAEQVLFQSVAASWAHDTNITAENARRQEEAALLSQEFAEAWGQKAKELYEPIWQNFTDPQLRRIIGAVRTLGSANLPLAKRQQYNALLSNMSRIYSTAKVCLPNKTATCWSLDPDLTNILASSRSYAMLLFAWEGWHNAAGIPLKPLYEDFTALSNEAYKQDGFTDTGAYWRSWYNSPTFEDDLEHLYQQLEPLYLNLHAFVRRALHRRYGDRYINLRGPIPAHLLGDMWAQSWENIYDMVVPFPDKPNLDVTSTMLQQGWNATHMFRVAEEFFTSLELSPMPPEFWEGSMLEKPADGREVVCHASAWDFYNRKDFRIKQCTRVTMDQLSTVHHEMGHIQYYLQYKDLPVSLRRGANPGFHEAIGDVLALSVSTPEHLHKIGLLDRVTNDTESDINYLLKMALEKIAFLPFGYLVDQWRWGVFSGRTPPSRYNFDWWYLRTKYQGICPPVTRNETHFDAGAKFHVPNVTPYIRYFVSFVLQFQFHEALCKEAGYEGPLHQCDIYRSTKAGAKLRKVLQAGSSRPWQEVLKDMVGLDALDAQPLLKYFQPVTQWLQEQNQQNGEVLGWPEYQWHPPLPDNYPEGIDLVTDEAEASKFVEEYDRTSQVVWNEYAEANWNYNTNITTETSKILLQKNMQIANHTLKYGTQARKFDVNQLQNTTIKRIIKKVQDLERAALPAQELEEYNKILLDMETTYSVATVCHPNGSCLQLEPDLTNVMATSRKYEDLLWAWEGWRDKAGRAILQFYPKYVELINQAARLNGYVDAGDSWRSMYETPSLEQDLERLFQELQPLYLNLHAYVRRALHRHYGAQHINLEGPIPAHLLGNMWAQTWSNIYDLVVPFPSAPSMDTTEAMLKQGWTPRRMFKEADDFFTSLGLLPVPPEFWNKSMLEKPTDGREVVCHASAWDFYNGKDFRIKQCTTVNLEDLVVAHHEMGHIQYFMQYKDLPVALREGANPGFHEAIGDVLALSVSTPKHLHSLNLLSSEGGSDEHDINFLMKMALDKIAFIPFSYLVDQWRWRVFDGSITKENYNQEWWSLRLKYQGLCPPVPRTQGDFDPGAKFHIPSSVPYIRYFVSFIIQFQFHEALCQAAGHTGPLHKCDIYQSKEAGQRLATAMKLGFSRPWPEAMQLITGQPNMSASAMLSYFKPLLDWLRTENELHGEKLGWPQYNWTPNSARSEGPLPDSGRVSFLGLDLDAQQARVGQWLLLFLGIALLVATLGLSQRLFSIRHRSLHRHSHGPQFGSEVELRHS

Ser-Tyr: in data set [1], the “angiotensin converting enzyme inhibitory activity” value was “have an angiotensin converting enzyme inhibitory activity”. The hypotensive activity result in data set [2] is reported as “a hypotensive activity”.

Turning to Gly-Tyr, the “angiotensin converting enzyme inhibitory activity” value in data set [1] is reported as “have an angiotensin converting enzyme inhibitory activity”. Besides, in data set [2], the hypotensive activity result is “a hypotensive activity”.
